Data from ChEMBL document CHEMBL3112479, “Synthesis and evaluation of the antimicrobial activities of 3-((5-phenyl-1,3,4-oxadiazol-2-yl)methyl)-2-thioxothiazolidin-4-one derivatives” (2014).
≈ marks a conversion by molar mass, not a printed value.

Legend:
Staphylococcus aureus [1] = test: Antimicrobial activity against quinolone-resistant Staphylococcus aureus clinical isolate 3519 after 20 hrs by two-fold serial dilution technique; type: functional; conditions: isolate 3519, 20 h
Staphylococcus aureus [2] = test: Antimicrobial activity against quinolone-resistant Staphylococcus aureus clinical isolate 3505 after 20 hrs by two-fold serial dilution technique; type: functional; conditions: isolate 3505, 20 h
Staphylococcus aureus [3] = test: Antimicrobial activity against methicillin-resistant Staphylococcus aureus clinical isolate 3506 after 20 hrs by two-fold serial dilution technique; type: functional; conditions: isolate 3506, 20 h
Staphylococcus aureus [4] = test: Antimicrobial activity against methicillin-resistant Staphylococcus aureus clinical isolate 3167 after 20 hrs by two-fold serial dilution technique; type: functional; conditions: isolate 3167, 20 h
Candida albicans = test: Antimicrobial activity against Candida albicans 7535 after 20 hrs by two-fold serial dilution technique; type: functional; conditions: Candida albicans, 7535, 20 h
Salmonella typhimurium [5] = test: Antimicrobial activity against Salmonella typhimurium 1926 after 20 hrs by two-fold serial dilution technique; type: functional, Salmonella enterica subsp. enterica serovar Typhimurium; conditions: Salmonella enterica, 1926, 20 h
Salmonella typhimurium [6] = test: Antimicrobial activity against Salmonella typhimurium 2421 after 20 hrs by two-fold serial dilution technique; type: functional, Salmonella enterica subsp. enterica serovar Typhimurium; conditions: Salmonella enterica, 2421, 20 h
Pseudomonas aeruginosa [7] = test: Antimicrobial activity against Pseudomonas aeruginosa 2004 after 20 hrs by two-fold serial dilution technique; type: functional; conditions: Pseudomonas aeruginosa, 2004, 20 h
Pseudomonas aeruginosa [8] = test: Antimicrobial activity against Pseudomonas aeruginosa 2742 after 20 hrs by two-fold serial dilution technique; type: functional; conditions: Pseudomonas aeruginosa, 2742, 20 h
Escherichia coli [9] = test: Antimicrobial activity against Escherichia coli CCARM 1356 after 20 hrs by two-fold serial dilution technique; type: functional; conditions: CCARM 1356, 20 h
Escherichia coli [10] = test: Antimicrobial activity against Escherichia coli KCTC 1924 after 20 hrs by two-fold serial dilution technique; type: functional; conditions: KCTC 1924, 20 h
Streptococcus mutans = test: Antimicrobial activity against Streptococcus mutans 3065 after 20 hrs by two-fold serial dilution technique; type: functional; conditions: Streptococcus mutans, 3065, 20 h
Staphylococcus aureus [11] = test: Antimicrobial activity against Staphylococcus aureus 503 after 20 hrs by two-fold serial dilution technique; type: functional; conditions: Staphylococcus aureus, 503, 20 h
Staphylococcus aureus [12] = test: Antimicrobial activity against Staphylococcus aureus 209 after 20 hrs by two-fold serial dilution technique; type: functional; conditions: Staphylococcus aureus, 209, 20 h
Staphylococcus aureus [13] = test: Antimicrobial activity against Staphylococcus aureus RN4220 after 20 hrs by two-fold serial dilution technique; type: functional; conditions: RN4220, 20 h

Structure (SMILES)	MIC (Staphylococcus aureus [1]) [µg/mL]	MIC (Staphylococcus aureus [2]) [µg/mL]	MIC (Staphylococcus aureus [3]) [µg/mL]	MIC (Staphylococcus aureus [4]) [µg/mL]	MIC (Candida albicans) [µg/mL]	MIC (Salmonella typhimurium [5]) [µg/mL]	MIC (Salmonella typhimurium [6]) [µg/mL]	MIC (Pseudomonas aeruginosa [7]) [µg/mL]	MIC (Pseudomonas aeruginosa [8]) [µg/mL]	MIC (Escherichia coli [9]) [µg/mL]	MIC (Escherichia coli [10]) [µg/mL]	MIC (Streptococcus mutans) [µg/mL]	MIC (Staphylococcus aureus [11]) [µg/mL]	MIC (Staphylococcus aureus [12]) [µg/mL]	MIC (Staphylococcus aureus [13]) [µg/mL]
O=C1CSC(=S)N1[C@@H](Cc1ccccc1)c1nnc(-c2cccc(Br)c2)o1	4 (≈ 8.69 µM)	2 (≈ 4.34 µM)	4 (≈ 8.69 µM)	2 (≈ 4.34 µM)	> 64	> 128	> 128	> 128	> 128	> 128	> 128	2 (≈ 4.34 µM)	> 64	> 64	4 (≈ 8.69 µM)
COc1c(N2C[C@@H]3CCCN[C@@H]3C2)c(F)cc2c(=O)c(C(=O)O)cn(C3CC3)c12 [MOXIFLOXACIN]	–	–	–	–	0.5 (≈ 1.25 µM)	1 (≈ 2.49 µM)	0.5 (≈ 1.25 µM)	2 (≈ 4.98 µM)	–	128 (≈ 319 µM)	–	0.25 (≈ 0.623 µM)	2 (≈ 4.98 µM)	–	0.25 (≈ 0.623 µM)
Cc1cccc(-c2nnc([C@H](Cc3ccccc3)N3C(=O)CSC3=S)o2)c1	8 (≈ 20.2 µM)	8 (≈ 20.2 µM)	8 (≈ 20.2 µM)	8 (≈ 20.2 µM)	> 64	> 128	> 128	> 128	> 128	> 128	> 128	4 (≈ 10.1 µM)	> 64	> 64	8 (≈ 20.2 µM)
O=C(O)c1ccc(/C=C2\SC(=S)N([C@@H](Cc3ccccc3)c3nnc(-c4cccc(Br)c4)o3)C2=O)cc1	2 (≈ 3.38 µM)	2 (≈ 3.38 µM)	1 (≈ 1.69 µM)	1 (≈ 1.69 µM)	> 64	> 128	> 128	> 128	> 128	> 128	> 128	1 (≈ 1.69 µM)	> 64	> 64	2 (≈ 3.38 µM)
O=C1CSC(=S)N1Cc1nnc(-c2ccccc2Cl)o1	32 (≈ 98.2 µM)	32 (≈ 98.2 µM)	32 (≈ 98.2 µM)	32 (≈ 98.2 µM)	64 (≈ 196 µM)	32 (≈ 98.2 µM)	64 (≈ 196 µM)	> 128	> 128	> 128	16 (≈ 49.1 µM)	16 (≈ 49.1 µM)	32 (≈ 98.2 µM)	16 (≈ 49.1 µM)	32 (≈ 98.2 µM)
O=C1CSC(=S)N1[C@@H](Cc1ccccc1)c1nnc(-c2cccc(Cl)c2)o1	8 (≈ 19.2 µM)	8 (≈ 19.2 µM)	8 (≈ 19.2 µM)	4 (≈ 9.62 µM)	> 64	> 128	> 128	> 128	> 128	> 128	> 128	4 (≈ 9.62 µM)	> 64	> 64	8 (≈ 19.2 µM)
O=C1CSC(=S)N1Cc1nnc(-c2ccccc2Br)o1	32 (≈ 86.4 µM)	32 (≈ 86.4 µM)	32 (≈ 86.4 µM)	16 (≈ 43.2 µM)	64 (≈ 173 µM)	64 (≈ 173 µM)	128 (≈ 346 µM)	> 128	> 128	> 128	16 (≈ 43.2 µM)	16 (≈ 43.2 µM)	64 (≈ 173 µM)	16 (≈ 43.2 µM)	32 (≈ 86.4 µM)
O=C1CSC(=S)N1Cc1nnc(-c2ccccc2)o1	64 (≈ 220 µM)	64 (≈ 220 µM)	64 (≈ 220 µM)	64 (≈ 220 µM)	64 (≈ 220 µM)	64 (≈ 220 µM)	128 (≈ 439 µM)	> 128	> 128	> 128	64 (≈ 220 µM)	64 (≈ 220 µM)	64 (≈ 220 µM)	32 (≈ 110 µM)	64 (≈ 220 µM)
Cc1cccc(-c2nnc([C@H](Cc3ccccc3)N3C(=O)/C(=C/c4ccc(C(=O)O)cc4)SC3=S)o2)c1	4 (≈ 7.58 µM)	2 (≈ 3.79 µM)	4 (≈ 7.58 µM)	2 (≈ 3.79 µM)	> 64	> 128	> 128	> 128	> 128	> 128	> 128	4 (≈ 7.58 µM)	> 64	> 64	2 (≈ 3.79 µM)
O=C1CSC(=S)N1Cc1nnc(-c2ccccc2F)o1	64 (≈ 207 µM)	64 (≈ 207 µM)	64 (≈ 207 µM)	64 (≈ 207 µM)	64 (≈ 207 µM)	64 (≈ 207 µM)	64 (≈ 207 µM)	> 128	> 128	> 128	32 (≈ 103 µM)	32 (≈ 103 µM)	64 (≈ 207 µM)	16 (≈ 51.7 µM)	64 (≈ 207 µM)
O=C1CSC(=S)N1Cc1nnc(-c2cccc(Br)c2)o1	32 (≈ 86.4 µM)	32 (≈ 86.4 µM)	32 (≈ 86.4 µM)	16 (≈ 43.2 µM)	32 (≈ 86.4 µM)	32 (≈ 86.4 µM)	128 (≈ 346 µM)	> 128	> 128	> 128	16 (≈ 43.2 µM)	16 (≈ 43.2 µM)	32 (≈ 86.4 µM)	16 (≈ 43.2 µM)	32 (≈ 86.4 µM)
